Active and inactive are the calls of the source. The calls are words filed in the database; no cut-off is given here.
Experiments:
Acinetobacter baumannii = assay: Bactericidal activity against Acinetobacter baumannii incubated for 4 hrs followed by culture spread on agar plates and cultured overnight; format: functional; conditions: read-out: MBC>99.9
[1] = Stability of the compound assessed as pepsin (unknown origin)-mediated compound hydrolysis after 8 hrs by SDS-PAGE analysis; format: ADME; conditions: human
Escherichia coli [2] = assay: Bactericidal activity against Escherichia coli ATCC 25922 incubated for 4 hrs followed by culture spread on agar plates and cultured overnight in presence of NH4Cl; format: functional; conditions: ATCC 25922, 4 h, read-out: MBC>99.9
Escherichia coli [3] = assay: Bactericidal activity against Escherichia coli ATCC 25922 incubated for 4 hrs followed by culture spread on agar plates and cultured overnight in presence of 50% serum albumin; format: functional; conditions: ATCC 25922, 4 h, read-out: MBC>99.9
Escherichia coli [4] = assay: Bactericidal activity against Escherichia coli ATCC 25922 incubated for 4 hrs followed by culture spread on agar plates and cultured overnight in presence of 0.25 mg/ml chymotrypsin; format: functional; conditions: ATCC 25922, 4 h, read-out: MBC>99.9
RAW264.7 = assay: Cytotoxicity against mouse RAW264.7 cells assessed as cell death after 18 to 24 hrs by MTT assay; format: cell-based
Escherichia coli [5] = assay: Bactericidal activity against Escherichia coli ATCC 25922 incubated for 4 hrs followed by culture spread on agar plates and cultured overnight in presence of 12.5% serum albumin; format: functional; conditions: ATCC 25922, 4 h, read-out: MBC>99.9
Klebsiella pneumoniae [6] = assay: Bactericidal activity against Klebsiella pneumoniae incubated for 4 hrs followed by culture spread on agar plates and cultured overnight; format: functional; conditions: read-out: MBC>99.9
Escherichia coli [7] = assay: Bactericidal activity against Escherichia coli UB1005 incubated for 4 hrs followed by culture spread on agar plates and cultured overnight; format: functional; conditions: UB1005, 4 h, read-out: MBC>99.9
Escherichia coli [8] = assay: Bactericidal activity against Escherichia coli ATCC 25922 incubated for 4 hrs followed by culture spread on agar plates and cultured overnight in presence of 25% serum albumin; format: functional; conditions: ATCC 25922, 4 h, read-out: MBC>99.9
[9] = Stability of the compound assessed as Tritirachium album proteinase K-mediated compound hydrolysis after 8 hrs by SDS-PAGE analysis; format: ADME; conditions: parengyodontium album
Escherichia coli [10] = assay: Antimicrobial activity against Escherichia coli UB1005 after 24 hrs by NCCLS-protocol based assay; format: functional; conditions: UB1005, 24 h
Escherichia coli [11] = assay: Antimicrobial activity against Escherichia coli K88 after 24 hrs by NCCLS-protocol based assay; format: functional; conditions: K88, 24 h
Escherichia coli [12] = assay: Induction of outer membrane permeabilization in Escherichia coli ATCC 25922 at 1 uM by NPN-dye based assay relative to control
[13] = Selectivity ratio of HC10 for human RBC to geometric mean of the peptide MBC for bacteria
Salmonella typhimurium = assay: Bactericidal activity against Salmonella typhimurium ATCC 14028 incubated for 4 hrs followed by culture spread on agar plates and cultured overnight; format: functional, Salmonella enterica subsp. enterica serovar Typhimurium; conditions: Salmonella enterica, ATCC 14028, 4 h; read-out: MBC>99.9
[14] = Hemolytic activity against human RBC at 1 to 128 uM after 1 hr; format: ADME, cell-based, Erythrocyte; conditions: red blood cells (erythrocytes), read-out: Activity
Escherichia coli [15] = assay: Induction of cytoplasmic membrane depolarization in Escherichia coli ATCC 25922 assessed as induction cytoplasmic ONPG release at 2 to 16 uM up to 120 mins by DiSC3-5 dye-based fluorescence spectrophotometric method; format: functional, organism-based
Escherichia coli [16] = assay: Bactericidal activity against Escherichia coli ATCC 25922 incubated for 4 hrs followed by culture spread on agar plates and cultured overnight in presence of KCl; format: functional; conditions: ATCC 25922, 4 h, read-out: MBC>99.9
Chymotrypsin = Chymotrypsin (Homo sapiens, UniProt Q99895+P17538+P40313+Q6GPI1); assay: Stability of the compound assessed as chymotrypsin (unknown origin)-mediated compound hydrolysis after 8 hrs by SDS-PAGE analysis; format: ADME, protein assay
Pseudomonas aeruginosa [17] = assay: Antimicrobial activity against Pseudomonas aeruginosa ATCC 27853 after 24 hrs by NCCLS-protocol based assay; format: functional; conditions: ATCC 27853, 24 h
Escherichia coli [18] = assay: Bactericidal activity against Escherichia coli ATCC 25922 incubated for 4 hrs followed by culture spread on agar plates and cultured overnight in presence of 2 mg/ml chymotrypsin; format: functional; conditions: ATCC 25922, 4 h, read-out: MBC>99.9
Pseudomonas aeruginosa [19] = assay: Bactericidal activity against Pseudomonas aeruginosa 26305 clinical isolates incubated for 4 hrs followed by culture spread on agar plates and cultured overnight; format: functional; conditions: Pseudomonas aeruginosa, 26305, 4 h; read-out: MBC>99.9
Escherichia coli [20] = assay: Bactericidal activity against Escherichia coli ATCC 25922 incubated for 4 hrs followed by culture spread on agar plates and cultured overnight in presence of 0.5 mg/ml chymotrypsin; format: functional; conditions: ATCC 25922, 4 h, read-out: MBC>99.9
Escherichia coli [21] = assay: Bactericidal activity against Escherichia coli ATCC 25922 incubated for 4 hrs followed by culture spread on agar plates and cultured overnight in presence of 0.125 mg/ml chymotrypsin; format: functional; conditions: ATCC 25922, 4 h, read-out: MBC>99.9
Escherichia coli [22] = assay: Antibacterial activity against Escherichia coli ATCC 25922 infected in ICR mouse assessed as mouse survival at 5 mg/kg, ip dosed at 0.5, 2, 4 and 8 hrs post-infection; format: functional; conditions: ATCC 25922, ip
Escherichia coli [23] = assay: Bactericidal activity against Escherichia coli 078 incubated for 4 hrs followed by culture spread on agar plates and cultured overnight; format: functional; conditions: Escherichia coli, 078, 4 h; read-out: MBC>99.9
Escherichia coli [24] = assay: Bactericidal activity against Escherichia coli ATCC 25922 incubated for 4 hrs followed by culture spread on agar plates and cultured overnight in presence of 0.125 mg/ml trypsin; format: functional; conditions: ATCC 25922, 4 h, read-out: MBC>99.9
Escherichia coli [25] = assay: Induction of cytoplasmic membrane depolarization in Escherichia coli ATCC 25922 at 2 uM up to 5000 secs by DiSC3-5 dye-based fluorescence spectrophotometric method; format: functional, organism-based
Klebsiella pneumoniae [26] = assay: Antimicrobial activity against Klebsiella pneumoniae after 24 hrs by NCCLS-protocol based assay; format: functional
Pseudomonas aeruginosa [27] = assay: Antimicrobial activity against Pseudomonas aeruginosa CICC 21630 clinical isolates after 24 hrs by NCCLS-protocol based assay; format: functional; conditions: CICC 21630, 24 h
Escherichia coli [28] = assay: Bactericidal activity against Escherichia coli ATCC 25922 incubated for 4 hrs followed by culture spread on agar plates and cultured overnight in presence of 2 mg/ml trypsin; format: functional; conditions: ATCC 25922, 4 h, read-out: MBC>99.9
[29] = Bactericidal activity against Salmonella pullorum C7913 incubated for 4 hrs followed by culture spread on agar plates and cultured overnight; format: functional, Salmonella enterica subsp. enterica serovar Pullorum; conditions: Salmonella enterica, C7913, 4 h; read-out: MBC>99.9
Escherichia coli [30] = assay: Antimicrobial activity against Escherichia coli 078 after 24 hrs by NCCLS-protocol based assay; format: functional; conditions: Escherichia coli, 078, 24 h
Trypsin = Trypsin (Homo sapiens, UniProt P07477+P07478+P35030); assay: Stability of the compound assessed as trypsin (unknown origin)-mediated compound hydrolysis after 8 hrs by SDS-PAGE analysis; format: ADME, protein assay
[31] = Stability of the compound assessed as Tritirachium album proteinase K-mediated compound hydrolysis by measuring compound helicity by CD spectroscopy; format: ADME; conditions: parengyodontium album
Escherichia coli [32] = assay: Bactericidal activity against Escherichia coli K99 incubated for 4 hrs followed by culture spread on agar plates and cultured overnight; format: functional; conditions: K99, 4 h, read-out: MBC>99.9

With H-IRPIIRPIIRPIIRPIIRPIIRPIIRPI-NH2 the MBC (Acinetobacter baumannii) was 1 µM, the Stability [1] was “Stable” and the MBC (Escherichia coli [2]) was 2 µM. It also gave an MBC (Escherichia coli [3]) of 16 µM, an MBC (Escherichia coli [4]) of 2 µM and an IC50 (RAW264.7) of 5.65 mM. It also gave an MBC (Escherichia coli [5]) of 8 µM, an MBC (Klebsiella pneumoniae [6]) of 4 µM and an MBC (Escherichia coli [7]) of 2 µM. For the same substance, the MBC (Escherichia coli [8]) was 8 µM, the Stability [9] was “Stable” and the MIC95 (Escherichia coli [10]) was 2 µM. It also gave an MIC95 (Escherichia coli [11]) of 1 µM, an Activity (Escherichia coli [12]) of over 50% and a Ratio [13] of 51.5. The MBC (Salmonella typhimurium) was 2 µM, the hemolysis at 1 h, up to 128 µM [14] was under 5% and the Activity (Escherichia coli [15]) was “Active”. For the same substance, the MBC (Escherichia coli [16]) was 2 µM, the Stability (Chymotrypsin) was “Stable” and the MIC95 (Pseudomonas aeruginosa [17]) was 4 µM. The MBC (Escherichia coli [18]) was 2 µM, the MBC (Pseudomonas aeruginosa [19]) was 64 µM and the MBC (Escherichia coli [20]) was 2 µM. It also gave an MBC (Escherichia coli [21]) of 2 µM, a survival at 5 mg/kg (Escherichia coli [22]) of 75% and an MBC (Escherichia coli [23]) of 1 µM. The MBC (Escherichia coli [24]) was 2 µM, the Activity (Escherichia coli [25]) was “Active” and the MIC95 (Klebsiella pneumoniae [26]) was 2 µM. It also gave an MIC95 (Pseudomonas aeruginosa [27]) of 32 µM, an MBC (Escherichia coli [28]) of 2 µM and an MBC [29] of 4 µM. The MIC95 (Escherichia coli [30]) was 1 µM, the Stability (Trypsin) was “Stable” and the Stability [31] was “Unstable”. For the same substance, the MBC (Escherichia coli [32]) was 2 µM.
